Measurements from US20260077072A1, “METHODS AND COMPOSITIONS FOR IMAGING MALIGNANCIES IN THE BONE MARROW” (Washington University, priority 2022, published 2026).

Legend:
[1] = system: osteolytic lesion in the right iliac bone; assay: 18F-FDG PET/CT of a multiple myeloma patient; type: in vivo, human; settings: same osteolytic lesion in right iliac bone of MM patient
[2] = reported for other copper radiopharmaceuticals; cited from earlier work
[3] = system: CD-1 mice; assay: Non-GLP tolerability and toxicity study of Cu-LLP2A V2, single IV bolus; type: in vivo
Protocol: To evaluate the tolerability and toxicity of Cu-CB-TE1A1P-PEG4-LLP2A V2 (Cu-LLP2A V2) tracer/imaging agent when administered once on Day 1 by intravenous (IV) bolus administration to male and female CD-1 mice, the following experiments were conducted. On Day 2 after administering the tracer/imaging agent, the first 10 animals/sex/group (Main Study) were sacrificed and necropsied. The remaining 5 animals/sex/group (Recovery) were weighed and observed for the remainder of the study and necropsied on Day 15.
Each treatment group (Groups 1-2) was comprised of […] CD-1 mice. Mice were administered either vehicle or 0.0604 mg/mouse Cu-LLP2A V2 (Groups 1 and 2, respectively) once on Day 1 via IV bolus injection at a dose volume of 0.125 mL/mouse. Physical examinations were recorded at the time of randomization. Clinical observations were recorded daily. Body weight measurements were taken for randomization and daily. Blood samples for the evaluation of hematology and clinical chemistry were collected on Day 2 (Main Study) and Day 15 (Recovery). Following blood sample collections, a necropsy was conducted. Protocol-specified tissues were collected and evaluated grossly, select organs were weighed, and tissues were fixed for microscopic evaluation. Tissues were subsequently processed and evaluated microscopically.

OC[C@H]1OC(O)[C@H]([18F])[C@@H](O)[C@@H]1O (stereo partly drawn) [^18F-FDG, [^18F]fluorodeoxyglucose]
SUL-peak (per PERCIST) in lesion [1]: 2.1
SUV-max in lesion [1]: 2.9

CN=C([S-])N/N=C(C)/C(C)=N/NC([S-])=NC.[64Cu+2] [^64Cu-ATSM]
Effective dose [2]: 0.036 mSv/MBq

Cu-CB-TE1A1P-PEG4-LLP2A V2 [Cu-LLP2A V2]
Survival ([3]; 0.0604 mg/mouse IV, until scheduled sacrifice (Day 2 or Day 15)): All animals survived
Tolerability ([3]; single IV injection of 0.0604 mg/mouse, male and female CD-1 mice): well tolerated
NOEL (No Observable Effect Level) ([3]; single IV injection, male and female CD-1 mice): 0.0604 mg/mouse
